Measured values from patent US5869456A, “Use of glutathione diesters” (priority 1995, dated 1999).
Like-named read-outs stand apart in the source and are kept apart here.

Key:
[1] = tested on: Hamsters (liver, kidney, blood plasma); test: Thiol levels in hamsters treated with GSH esters; assay type: in vivo, Syrian hamster; conditions: 1 hour later
Experimental: Plasma Samples: 190 μl 50 mM DTPA, total 70 μ1 sample plus 3.33% SSA, 17.5 μl Tris, 10 μl of mBBr; after 20 min in the dark, 7.5 μl glacial acetic acid. Reduced Plasma Samples: 170μ 50 mM DTPA, 20 μl 16 mM DTT in 50 mM DTPA, remainder as above; the samples were agitated at room temperature for 20 min. After reduction, mBBr was added and the derivatization proceeds as above.
Other Animal Tissues. 385 μl 50 mM DTPA, 140 μl sample. 20 μl mBBr, 40 μl Tris; 20 minutes in the dark, 15 μl glacial acetic acid. Standards for all sample types were prepared using identical derivatization procedures.
Recovery of Tissues from Syrian Hamsters. Animals were anesthetized by i.p. administration of xylazine and ketamine, decapitated, and exsanguinated. Blood was mixed with 50 μl EDTA (0.5M, pH 7). Plasma was recovered by centrifugation; one-half vol. 10% SSA/0.5 mM DTPA was added. Liver: one lobe was removed, rinsed with H2 O, blotted, weighed, and homogenized in 5% SSA (0.5 Mm DTPA) (5 vol/g tissue). Kidney: one kidney was removed and decapsulated and then processed as with liver.
BSO (6 mmol/kg) was given I.P. fasted animals 2 hours prior to giving GSH, GSH-ME, or GSH-DE (5 mmol/kg); values were determined 1 hour later. […] Each value represents determinations ±S.D. on 3-4 animals.

[2] = tested on: Purified Human T-Lymphoctyes; test: Thiol levels in purified human T-lymphocytes after treatment with GSH esters; assay type: cell-based; conditions: purified T-cells, 0.3 ml 80 mM thiol to 0.9 ml cells, 37° C.
Experimental: HPLC Analysis of Cellular Thiols. […] Flow rates were 1 ml/min.
Purified T-cells were suspended in PBS. […] After incubation at 37° C. for the indicated times, cells were recovered and processed as described for PBM in Table 4.
Where values for cysteine are not reported, levels are <0.3 nmol/10^7cells (for 7 min. samples) or <0.5 nmol/10^7 cells (for 90 mni. samples).

Human Erythrocytes [3] = conditions: whole blood + one-half volume 120 mM thiol, 30 minutes, 37° C.
Experimental: (§1) Derivatization of Cell Thiols for HPLC Analysis. Derivatization mixtures are as follows: Erythrocyte Lysates: 155 μl 50 mM DTPA (pH 7), 110 μl 3.33% SSA, total 180 μl cell supernatant plus "RBC Mix", 10 μl 0.1M mBBr (in CH3 CN), 100 μl of 2M Tris·HCl (pH 9 at room temperature). The samples were placed in the dark for 20-30 minutes at room temperature; the reaction was quenched with 90 μl of glacial acetic acid. Reduced Erythocyte Lysates. 155 μl mM DTT in 50 mM DTPA (pH 7), SSA, sample, and "RBC Mix" as above Tris was added and the samples were agitated at room temperature for 25 min. 20 μl Tris and 10 μl mBBr were added; the derivatization proceeds as above.
(§2) HPLC Analysis of Cellular Thiols. Samples were chromatographed on an Altex Ultrasphere ODS reverse phase column (5μ; 4.6 mm×25 cm), using one of three gradients: (1) Buffer A: 12.8% MeOH, 0.25% acetic acid, 87.75% H2 O, pH 3.9. (2) Buffer B: 90.0% MeOH, 0.25% acetic acid, 9.75% H2 O (no pH Adjustment). (3) Gradient 1: Initial, 100% A, linear gradient to 50% B at 25 min., linear gradient to 100% B at 35 min., wash with 100% B to 39.5 min.; step to 100% A at 40 min.; equilibration with 100% A to 48 min. Gradient 2: Initial, 100% A, linear gradient to 75% B at 25 min., remainder identical to Gradient 1. Gradient 3: Initial, 100% A, linear gradient to 65% A, 35% B at 25 minutes, remainder identical to gradient 1. Flow rates were 1 ml/min.
Whole blood (see Table 1) was mixed with one-half volume of 120 mM GSH, GSH-ME, or GSH-DE at pH 7. The samples were incubated for 30 minutes at 37° C. and then centrifuged. After removal of plasma and buffy coat, the erythrocytes were washed and processed as described in Table 1.

[4] = tested on: Human Peripheral Blood Mononuclear Cells; conditions: for Thiol Levels, thiol found GSH / Thiol Levels, Total / Thiol Levels, thiol found GSH-ME: isolated PBM, 0.3 ml 80 mM thiol to 0.9 ml cells, 37° C.
Experimental: (§3) T Cell and PBM Lysates: 120 μl 4 mM DTPA, total 360 μl sample/4.31% SSA (containing 0.5 mM DTPA), 100 μl Tris, 5μ mBBr; 20 min. in the dark, 15 μl glacial acetic acid.
as §2
PBM were isolated from whole blood (see Tables 1 and 3) washed with PBS, and re-suspended in PBS. To 0.9 ml cell suspension (5-8×10^6 cells) was added 0.3 ml of 80 mM GSH, GSH-ME or GSH-DE at pH 7. After incubation at 37° C. for the indicated times, the cells were recovered by centrifugation, washed with 14 ml PBS (2×), and lysed by addition of 4.31% of SSA/0.5 mM DTPA and 2-3 freeze-thaw cycles. After centrifugation, supernatants were derivatized for HPLC analysis.

Human Erythrocytes [5] = conditions: for Thiol Levels, thiol found GSH / Thiol Levels, Total / Thiol Levels, thiol found GSH-ME: erythrocyte suspension, 80 mM thiol added (one-third vol), 37° C.
Experimental: Analysis of Erythrocyte Thiol by DTNB. Cell supernatant (40 μl) was added to 1 ml of 6 mM DTNB (in 143 mM phosphate buffer, pH 7.5, containing 6.3 mM EDTA). The change in absorbance at 412 nm after 1 min was converted to a value for total thiol using a GSH standard curve. The GSH standard were prepared in a 1:2:2 mixture of PBS: 0.435M acetic acid: 10% SSA (containing 2 mM EDTA) ("RBC Mix").
as §1, §2
Whole blood was collected with EDTA or DTPA (0.5M, pH 7) as anticoagulant (0.4 ml/8-12 ml blood). Plasma and buffy coat were removed after centrifugation and the erythrocytes washed 3 times with 1-2 vol PBS/5 mM DTPA or EDTA. Packed erythrocytes were suspended in one-half vol. PBS. To each suspension was one-third vol. GSH, GSH-ME or GSH-DE (80 mM, pH 7). After incubation at 37° C. for the indicated times, aliquots were removed, washed (3-4×) with PBS/EDTA/DTPA, lysed with one volume 0.435M acetic acid, protein-precipitated with one volume 10% SSA/2 mM DTPA, and centrifuged to remove cell debris. Supernatants were derivatized for HPLC analysis as described in Materials and Methods.

[6] = tested on: Human Peripheral Blood Mononuclear Cells; conditions: 6 ml whole blood + 3 ml 60 mM thiol, 30 min, 37° C.; PBM
Experimental: as §3, §2
6 mls. whole blood (see Table 1) was mixed with 3 ml of 60 mM GSH, GSH-ME or GSH-DE at pH 7. After 30 min incubation at 37° C., PBM were isolated by Ficoll-Hypaque density gradient centrifugation. Cells were washed with 14 ml PBS (2-3) and lysed with 4.31% SSA/0.5 mM DTPA (400 μl). After centrifugation, the supernatants were derivatized for HPLC analysis.

Question: For `CCCCS(=N)(=O)CCC(N)C(=O)O` [BSO, L-buthionine sulfoximine], which “Kidney thiol found GSH” value ([1]; fasted hamsters, BSO 6 mmol/kg I.P. 2 hours before thiol 5 mmol/kg, kidney) is on record?
Answer: 1.00 ± 0.19 µmol/g

Question: What about the “Liver thiol found GSH” value ([1]; fasted hamsters, BSO 6 mmol/kg I.P. 2 hours before thiol 5 mmol/kg, liver) of the same molecule?
Answer: 5.10 ± 0.51 µmol/g

Question: What about the “Thiol Levels, thiol found GSH” value ([2]; 7 min, donor A) of the same molecule?
Answer: 2.39 ± 0.09 nmol/10^7 cells

Question: What about the “Thiol Levels, thiol found GSH” value ([2]; 90 min, donor B) of the same molecule?
Answer: < 0.6 nmol/10^7 cells

Question: `N[C@@H](CCC(=O)N[C@@H](CS)C(=O)NCC(=O)O)C(=O)O` [GSH, L-γ-glutamyl-L-cysteinyl-glycine] was tested. Which “Thiol Levels Found, GSH” value (Human Erythrocytes [3]) did it give?
Answer: 2.12 ± 0.47 mM

Question: And the “Thiol Levels Found, Total” value (Human Erythrocytes [3])?
Answer: 2.12 ± 0.47 mM

Question: What about the “Thiol Levels, thiol found GSH” value ([4]; 7 min, donor A) of the same molecule?
Answer: 1.86 nmol/10^6 cells

Question: And the “Thiol Levels, thiol found GSH” value ([4]; 7 min, donor B)?
Answer: 1.51 nmol/10^6 cells

Question: What about the “Thiol Levels, thiol found GSH” value ([4]; 45 min, donor B) of the same molecule?
Answer: 1.16 ± 0.06 nmol/10^6 cells

Question: What about the “Thiol Levels, thiol found GSH” value ([4]; 90 min, donor A) of the same molecule?
Answer: 1.60 nmol/10^6 cells

Question: What about the “Thiol Levels, thiol found GSH” value (Human Erythrocytes [5]; 7 min) of the same molecule?
Answer: 1.91 ± 0.05 mM

Question: And the “Thiol Levels, thiol found GSH” value (Human Erythrocytes [5]; 45 min)?
Answer: 2.04 ± 0.06 mM

Question: And the “Thiol Levels, thiol found GSH” value (Human Erythrocytes [5]; 90 min)?
Answer: 1.83 ± 0.07 mM

Question: Which “Thiol Levels Found, GSH” value (Human Erythrocytes [3]) does the source give for `CCOC(=O)CNC(=O)[C@H](CS)NC(=O)CC[C@H](N)C(=O)O` [GSH-ME, glutathione monoethyl (glycyl) ester] here?
Answer: 2.35 ± 0.52 mM

Question: What about the “Thiol Levels Found, GSH-ME” value (Human Erythrocytes [3]) of the same molecule?
Answer: 3.45 ± 0.73 mM

Question: What about the “Thiol Levels Found, Total” value (Human Erythrocytes [3]) of the same molecule?
Answer: 5.80 ± 1.25 mM

Question: And the “Blood plasma levels of GSH” value ([1]; hamsters, 5 mmol/kg after BSO)?
Answer: not affected

Question: What about the “total thiols in human PBM” value ([4]; in 90 min, text summary of Table 4) of the same molecule?
Answer: 10.6 mM

Question: And the “Thiol Levels, Total” value ([4]; 7 min, donor A)?
Answer: 3.32 ± 0.19 nmol/10^6 cells

Question: And the “Thiol Levels, thiol found GSH” value ([4]; 7 min, donor A)?
Answer: 2.05 ± 0.08 nmol/10^6 cells

Question: And the “Thiol Levels, thiol found GSH-ME” value ([4]; 7 min, donor A)?
Answer: 1.27 ± 0.11 nmol/10^6 cells

Question: And the “Thiol Levels, Total” value ([4]; 45 min, donor B)?
Answer: 4.39 ± 0.25 nmol/10^6 cells

Question: What about the “Thiol Levels, thiol found GSH” value ([4]; 45 min, donor B) of the same molecule?
Answer: 1.64 ± 0.06 nmol/10^6 cells

Question: And the “Thiol Levels, thiol found GSH-ME” value ([4]; 45 min, donor B)?
Answer: 2.75 ± 0.19 nmol/10^6 cells

Question: What about the “Thiol Levels, Total” value ([4]; 90 min, donor A) of the same molecule?
Answer: 10.7 ± 1.3 nmol/10^6 cells

Question: What about the “Thiol Levels, thiol found GSH” value ([4]; 90 min, donor A) of the same molecule?
Answer: 3.45 ± 0.39 nmol/10^6 cells

Question: What about the “Thiol Levels, thiol found GSH-ME” value ([4]; 90 min, donor A) of the same molecule?
Answer: 7.23 ± 0.88 nmol/10^6 cells

Question: And the “Thiol Levels Found, GSH” value [6]?
Answer: 1.46 nmol/10^6 cells

Question: And the “Thiol Levels Found, GSH-ME” value [6]?
Answer: 2.08 nmol/10^6 cells

Question: What about the “Thiol Levels Found, Total” value [6] of the same molecule?
Answer: 3.54 nmol/10^6 cells

Question: And the “Thiol Levels, Total” value (Human Erythrocytes [5]; 7 min)?
Answer: 2.65 ± 0.31 mM

Question: And the “Thiol Levels, thiol found GSH” value (Human Erythrocytes [5]; 7 min)?
Answer: 1.72 ± 0.27 mM

Question: What about the “Thiol Levels, thiol found GSH-ME” value (Human Erythrocytes [5]; 7 min) of the same molecule?
Answer: 0.932 ± 0.04 mM

Question: And the “Thiol Levels, Total” value (Human Erythrocytes [5]; 45 min)?
Answer: 3.49 ± 0.35 mM

Question: And the “Thiol Levels, thiol found GSH” value (Human Erythrocytes [5]; 45 min)?
Answer: 1.83 ± 0.31 mM

Question: And the “Thiol Levels, thiol found GSH-ME” value (Human Erythrocytes [5]; 45 min)?
Answer: 1.66 ± 0.04 mM

Question: And the “Thiol Levels, Total” value (Human Erythrocytes [5]; 90 min)?
Answer: 3.57 ± 0.38 mM

Question: And the “Thiol Levels, thiol found GSH” value (Human Erythrocytes [5]; 90 min)?
Answer: 1.90 ± 0.30 mM

Question: And the “Thiol Levels, thiol found GSH-ME” value (Human Erythrocytes [5]; 90 min)?
Answer: 1.67 ± 0.08 mM

Question: What about the “total RBC thiol levels” value (Human Erythrocytes [5]; summary of Table 1) of the same molecule?
Answer: about 3 mM
